For assay [1], the target named is T1, panel of 442 kinases (Homo sapiens, UniProt P54764).
T1 construct: purchased KINOMEscan
Format: binding. The conditions noted are these: Compound Concentration 10 µM. An excerpt: (§1) We assessed the selectivity of members of this scaffold using the KINOMEscan methodology across a near comprehensive panel of 442 kinases [[18,27]].

In assay [2] the target is T2, panel of 442 kinases (Homo sapiens, UniProt Q9NRP7).
T2 construct: purchased KINOMEscan
T2 sequence (Q9NRP7 1-1315): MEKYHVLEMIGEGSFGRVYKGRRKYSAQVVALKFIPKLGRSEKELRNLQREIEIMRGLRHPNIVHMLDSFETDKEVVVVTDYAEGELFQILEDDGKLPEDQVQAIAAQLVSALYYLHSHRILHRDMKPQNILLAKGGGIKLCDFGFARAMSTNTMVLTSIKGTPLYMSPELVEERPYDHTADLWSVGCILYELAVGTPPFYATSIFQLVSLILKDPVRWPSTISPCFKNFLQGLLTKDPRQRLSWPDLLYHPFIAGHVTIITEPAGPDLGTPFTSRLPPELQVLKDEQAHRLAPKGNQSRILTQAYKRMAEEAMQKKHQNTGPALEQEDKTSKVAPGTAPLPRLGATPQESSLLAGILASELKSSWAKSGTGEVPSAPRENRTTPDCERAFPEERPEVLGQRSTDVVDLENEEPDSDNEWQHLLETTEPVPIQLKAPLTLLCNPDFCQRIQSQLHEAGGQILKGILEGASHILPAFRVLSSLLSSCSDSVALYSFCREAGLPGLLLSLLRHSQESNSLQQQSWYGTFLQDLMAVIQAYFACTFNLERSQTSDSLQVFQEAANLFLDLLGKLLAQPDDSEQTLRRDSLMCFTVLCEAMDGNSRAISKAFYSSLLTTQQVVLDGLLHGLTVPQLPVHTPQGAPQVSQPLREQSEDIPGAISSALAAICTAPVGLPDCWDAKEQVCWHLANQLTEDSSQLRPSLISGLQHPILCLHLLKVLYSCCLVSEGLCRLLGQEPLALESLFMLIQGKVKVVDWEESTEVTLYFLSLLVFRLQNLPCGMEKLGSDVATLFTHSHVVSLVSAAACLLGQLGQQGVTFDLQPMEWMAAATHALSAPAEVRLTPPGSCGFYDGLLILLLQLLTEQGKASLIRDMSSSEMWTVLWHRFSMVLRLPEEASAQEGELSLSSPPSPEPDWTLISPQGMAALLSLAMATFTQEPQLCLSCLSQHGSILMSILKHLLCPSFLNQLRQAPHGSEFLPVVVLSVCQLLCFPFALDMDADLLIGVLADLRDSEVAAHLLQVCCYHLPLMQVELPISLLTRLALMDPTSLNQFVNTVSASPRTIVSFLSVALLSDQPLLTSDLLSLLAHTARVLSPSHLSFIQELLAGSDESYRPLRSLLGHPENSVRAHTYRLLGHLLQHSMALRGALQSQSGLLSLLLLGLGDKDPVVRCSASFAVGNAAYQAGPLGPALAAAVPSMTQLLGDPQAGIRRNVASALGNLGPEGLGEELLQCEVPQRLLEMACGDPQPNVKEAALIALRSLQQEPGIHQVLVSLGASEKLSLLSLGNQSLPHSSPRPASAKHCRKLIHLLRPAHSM
The format is binding. The note with it: kinase STK36; compound concentration 10 µM.
Text: as §1

T1 sequence (P54764 20-986): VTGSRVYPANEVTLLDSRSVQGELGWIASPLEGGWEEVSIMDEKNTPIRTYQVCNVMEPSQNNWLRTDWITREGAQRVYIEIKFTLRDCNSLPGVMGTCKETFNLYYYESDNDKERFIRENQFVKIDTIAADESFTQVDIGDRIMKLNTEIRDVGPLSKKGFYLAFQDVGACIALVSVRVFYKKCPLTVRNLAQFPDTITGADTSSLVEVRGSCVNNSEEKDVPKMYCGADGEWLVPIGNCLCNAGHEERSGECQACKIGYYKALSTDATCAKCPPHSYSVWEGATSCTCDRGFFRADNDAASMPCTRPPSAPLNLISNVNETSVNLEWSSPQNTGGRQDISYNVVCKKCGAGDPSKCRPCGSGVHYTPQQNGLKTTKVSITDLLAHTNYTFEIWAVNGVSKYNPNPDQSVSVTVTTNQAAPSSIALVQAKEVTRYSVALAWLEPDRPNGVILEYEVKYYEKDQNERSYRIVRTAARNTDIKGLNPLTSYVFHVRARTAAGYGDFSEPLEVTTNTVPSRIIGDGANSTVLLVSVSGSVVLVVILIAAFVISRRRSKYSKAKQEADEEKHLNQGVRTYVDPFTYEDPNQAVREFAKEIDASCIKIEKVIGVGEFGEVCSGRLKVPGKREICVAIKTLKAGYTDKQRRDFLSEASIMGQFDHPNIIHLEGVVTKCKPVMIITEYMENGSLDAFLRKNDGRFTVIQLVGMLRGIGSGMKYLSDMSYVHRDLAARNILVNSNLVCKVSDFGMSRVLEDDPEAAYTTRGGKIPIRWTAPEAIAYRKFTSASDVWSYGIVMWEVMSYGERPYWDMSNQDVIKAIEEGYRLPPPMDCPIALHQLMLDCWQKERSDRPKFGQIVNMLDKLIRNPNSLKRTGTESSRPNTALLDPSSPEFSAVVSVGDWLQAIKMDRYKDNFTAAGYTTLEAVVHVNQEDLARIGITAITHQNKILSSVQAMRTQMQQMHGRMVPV

Take `COc1cc(C(=O)N2CCC(N3CCN(C)CC3)CC2)ccc1Nc1ncc2c(n1)N(C1CCCC1)c1ccccc1C(=O)N2C` [Compound 25, 11-cyclopentyl-2-((2-methoxy-4-(4-(4-methylpiperazin-1-yl)piperidine-1-carbonyl)phenyl)amino)-5-methyl-5H-benzo[e]pyrimido[5,4-b][1,4]diazepin-6(11H)-one]: the “KINOMEscan: EPHA4” value in assay [1] stood at 100. For the same compound, the “% Ctrl, STK36” value in assay [2] stood at 96 % Ctrl.

Turning to `COc1cc(C(=O)N2CCC(N3CCN(C)CC3)CC2)ccc1Nc1ncc2c(n1)N1CCc3cccc(c31)C(=O)N2C` [Compound 24], the “KINOMEscan: EPHA4” value in assay [1] is 97.

As for `COc1cc(C(=O)N2CCC(N3CCN(C)CC3)CC2)ccc1Nc1ncc2c(n1)N(C)c1ccccc1C(=O)N2C` [15 (LRRK2-IN-1)], the “KINOMEscan: EPHA4” value in assay [1] worked out at 89. Also, the “% Ctrl, STK36” value in assay [2] worked out at 97 % Ctrl.

Consider `CCOc1cc(C(=O)N2CCC(N3CCN(C)CC3)CC2)ccc1Nc1ncc2c(n1)N(C1CCCC1)c1ccccc1C(=O)N2C` [Compound 26], for which the “KINOMEscan: EPHA4” value in assay [1] was 100. Further, the “% Ctrl, STK36” value in assay [2] is 99 % Ctrl.

The record behind these values is paper PMC3914206.
